Test results published in US3932374A, “Bleomycinic acid and process for preparing thereof” (Zaidan Hojin Biseibutsu Kagaku Kenkyu Kai, priority 1971, dated 1976).
Where two headings read alike, the source gives them in different places.

Experiments:
[1] = tested on: Mycobacterium 607; experiment: cup test, antimicrobial activity to Mycobacterium 607; type: cell-based
Text: The endpoint of the hydrolysis reaction can be determined by a reaction in antimicrobial activity of the bleomycin substrate as measured by conventional cup tests using Mycobacterium 607, or by a change in the Rf value during thin layer chromatography.

[2] = tested on: cell culture of Yoshida
[3] = tested on: HeLa (S3 bb cell line); conditions: third day
Text: wherein the inhibitory effect = [formula] Co: relative number of cell on the first day t3 : relative number of cell on the third day after the addition of a bleomycin (3 mcg/ml in final)
C3 : relative number of cell in negative control on the third day

[4] = tested on: ICR-JCL male mice; conditions: 10 mice, 10 mg./kg. i.v., 10 days
Text: The mice were bred for 5 weeks after the final administration and were then dissected. The right and left lungs were observed by microscopic examination.

[5] = solubility in solvents; type: physicochemical
[6] = tested on: Mycobacterium 607; conditions: cup test; standard value; cited from earlier work

Compound | antimicrobial activity to Mycobacterium 607 [1] | Inhibitory effect ([2]; 0.625 mcg/ml) | Inhibitory effect ([2]; 1.25 mcg/ml) | Inhibitory effect ([2]; 2.5 mcg/ml) | Inhibitory effect ([2]; 5 mcg/ml) | Inhibitory effect ([3]; 1.5 mcg/ml.) | Inhibitory effect ([3]; 3 mcg/ml.) | further results
Cc1c(N)nc(C(CC(N)=O)NCC(N)C(N)=O)nc1C(=O)NC(C(=O)NC(C)C(O)C(C)C(=O)NC(C(=O)NCCc1nc(-c2nc(C(=O)O)cs2)cs1)C(C)O)C(OC1OC(CO)C(O)C(O)C1OC1OC(CO)C(O)C(OC(N)=O)C1O)c1cnc[nH]1 (centres unmarked) [bleomycinic acid] | 159 μ/mg |  |  |  |  |  |  | 
Cc1c(N)nc([C@H](CC(N)=O)NC[C@H](N)C(N)=O)nc1C(=O)N[C@H](C(=O)N[C@H](C)[C@@H](O)[C@H](C)C(=O)N[C@H](C(=O)NCCc1nc(-c2nc(C(=O)NCCCCN=C(N)N)cs2)cs1)[C@@H](C)O)[C@@H](O[C@@H]1O[C@@H](CO)[C@@H](O)[C@H](O)[C@@H]1O[C@H]1O[C@H](CO)[C@@H](O)[C@H](OC(N)=O)[C@@H]1O)c1cnc[nH]1 [bleomycin B2, 4-guanidinobutylamino-bleomycin] | 3094 μ/mg | 8.6 | 34.0 | 56.0 | 74.9 | 33 | 64 | Total, mice with degree of fibrosis ++ ([4]; Lung L): 1; Total, mice with degree of fibrosis - ([4]; Lung L): 5; Total, mice with degree of fibrosis ± ([4]; Lung L): 1; Total, mice with degree of fibrosis ± (third Total column) ([4]; Lung L): 3; Total, mice with degree of fibrosis ++ ([4]; Lung R): 0; Total, mice with degree of fibrosis - ([4]; Lung R): 4; Total, mice with degree of fibrosis ± ([4]; Lung R): 3; Total, mice with degree of fibrosis ± (third Total column) ([4]; Lung R): 3; antimicrobial activity to Mycobacterium 607 ([1]; listed as bleomycin): 3015 μ/mg
benzylamino-bleomycin | 3250 μ/mg | 11.1 | 28.2 | 55.4 | 83.5 | 38 | 73 | Inhibitory effect ([3]; 6 mcg/ml.): 92
hydrochloride of bleomycinic acid |  |  |  |  |  |  |  | solubility in ethanol, ethyl acetate, acetone and ether ([5]; ethanol, ethyl acetate, acetone, ether): insoluble; solubility in methanol, acetic acid, dimethylsulfoxide ([5]; methanol, acetic acid, dimethylsulfoxide): sparingly soluble; solubility in water ([5]; water): soluble
Cc1c(N)nc([C@H](CC(N)=O)NC[C@H](N)C(N)=O)nc1C(=O)N[C@H](C(=O)N[C@H](C)[C@@H](O)[C@H](C)C(=O)N[C@H](C(=O)NCCc1nc(-c2nc(C(=O)NCCC[S+](C)C)cs2)cs1)[C@@H](C)O)[C@@H](O[C@@H]1O[C@@H](CO)[C@@H](O)[C@H](O)[C@@H]1O[C@H]1O[C@H](CO)[C@@H](O)[C@H](OC(N)=O)[C@@H]1O)c1c[nH]cn1.[Br-] [bleomycin A2, 3-dimethylsulfopropylamino-bleomycin] |  |  |  |  |  |  |  | antimicrobial activity, standard [6]: 1000 μ/mg
